Data taken from patent publication US6423519B1, “Compositions and methods for inhibiting fungal growth” (GPC Biotech Inc., priority 1998, dated 2002).
≈ marks a conversion by molar mass, not a printed value. Like-named read-outs stand apart in the source and are kept apart here.

Assays:
MycCaRHO1 = assay: Prenylation state / localisation of newly synthesized MycCaRHO1 (fractionation, Western blot); type: cell-based, C. albicans; settings: 3 μg/ml, strain DIY-BL2-058, versus mock (DMSO) treated cells
Method: To look at the effect of GGPTase I inhibitors in vivo a recombinant C. albicans strain engineered to express a Myc tagged CaRHO1 under the control of the C. albicans phosphoenolpyruvate carboxykinase 1 (PCK1) promoter is used. This promoter is repressed by glucose and derepressed by gluconeogenic carbon sources such as succinate. It should also be possible to be look at the endogenous substrates of the GGPTase I. Cells are treated with a sublethal dose of compound for a period of time which has been established from a kill curve analysis in the appropriate media. After the treatment time, cells are harvested and whole cell extracts (WCE) made, these extracts are then resolved by high speed centrifugation into cytosolic and membrane fractions. Visualisation of the localisation of the MycCaRHO1 is achieved by sodium dodecyl sulfate-polyacrylamide gel electrophoresis (SDS-PAGE) and Western blotting. […]
Cells of strain DIY-BL2-058 were grown overnight in YNB supplemented with 1 μg/ml histidine, 2 μg/ml methionine, 2 μg/ml tryptophan, 200 μg/ml glutamine and 2% glucose at 220 rpm at 31° C. The cell number was then determined, cells were pelleted by centrifugation and resuspended in fresh media at a density of 1×10^7 cells/ml and incubated as above. […]
Fractions were thawed on ice. The protein concentration was determined using the standard Bradford method for the WCEs and cytosolic fraction. […]

H460 Cell Line = assay: Cytotoxicity of GGPTase inhibitors in human cells, H460 (Sulforhodamine B); type: cell-based; settings: NCI-H460, read-out: Human cell IC50 (nM) H460
Method: (§1) (A) Plate out cells at predetermined concentration in a volume of 150 μl.
(§2) (B) Allow cells to adhere to plate for twenty four hours
(§3) (C) Add compounds to cells at predetermined concentration (62.5 μg/mL down four-fold, 8 dilutions) n=2
(§4) (D) Cells are exposed to drug for 7 days for the IMR90 Cell Line, and a period of 3 days for the H460 Cell Line.
(E) 1. H460 Cells are fixed in TCA, rinsed, stained with Sulforhodamine B stain, and the stain is solubilized for a final OD read.

IMR90 Cell Line = assay: Cytotoxicity of GGPTase inhibitors in human cells, IMR90 (MTT); type: cell-based; settings: IMR-90, read-out: Human cell IC50 (nM) IMR90
Method: as §1, §2, §3, §4
2. IMR90 Cells have 3-{4,5-Dimethylthiazol-2-yl}-2,5-diphenyltetrazolium bromide (MTT) added to them for three hours prior to final read out. After the three hours, media and MTT are removed and MTT crystals are solubilized in 100% DMSO for final OD read.

C. albicans GGPTase = target: T1, C. albicans GGPTase (Candida albicans, UniProt Q8J224+Q9Y764); assay: biochemical
T1 sequence (Q9Y764 1-398): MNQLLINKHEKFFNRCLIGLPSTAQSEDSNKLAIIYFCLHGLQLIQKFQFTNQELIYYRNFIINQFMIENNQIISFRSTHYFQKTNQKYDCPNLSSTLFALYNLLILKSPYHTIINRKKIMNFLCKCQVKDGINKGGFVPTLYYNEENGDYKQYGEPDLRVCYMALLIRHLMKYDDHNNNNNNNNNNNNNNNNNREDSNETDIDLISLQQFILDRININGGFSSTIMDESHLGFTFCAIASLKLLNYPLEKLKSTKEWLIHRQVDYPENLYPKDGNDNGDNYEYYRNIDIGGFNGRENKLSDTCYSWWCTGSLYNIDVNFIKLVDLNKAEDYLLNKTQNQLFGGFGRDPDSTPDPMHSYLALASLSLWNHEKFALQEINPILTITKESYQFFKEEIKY
T1 sequence (Q8J224 1-306): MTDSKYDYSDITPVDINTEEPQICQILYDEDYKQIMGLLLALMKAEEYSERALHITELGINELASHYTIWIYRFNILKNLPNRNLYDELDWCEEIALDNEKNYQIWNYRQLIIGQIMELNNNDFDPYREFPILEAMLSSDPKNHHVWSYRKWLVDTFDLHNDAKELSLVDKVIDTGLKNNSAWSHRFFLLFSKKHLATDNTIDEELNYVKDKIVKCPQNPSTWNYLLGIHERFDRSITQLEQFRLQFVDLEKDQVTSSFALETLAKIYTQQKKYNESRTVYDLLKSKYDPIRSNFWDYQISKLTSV
Method: Plate test compounds (10 μL per well) at predetermined concentration in 50% DMSO. For background control (blank) and reaction control (negative), add 10 μL of 200 μM GGPP and 10 μL 50% DMSO, respectively. Prepare assay buffer: 50 mM Tris, pH7.5, 20 mM KCL, 5 mM MgCl2, 5 μM ZnCl2, 0.5 mM Zw(3-14), 2 mM DTT and 0.1 mg/mL BSA.
Add 20 μL of C. albicans GGPTase and ^3H-GGPP in assay buffer to test compound. Preincubate enzyme and ^3H-GGPP with test compound for 15 minutes at room temperature. Add 20 μL C. albicans Rho in assay buffer. Incubate for 30 minutes at room temperature. Final assay conditions are 2 nM C. albicans GGPTase, 250 nM ^3H-GGPP and 250 nM C. albicans Rho.
Add 100 μL 15 mM GGPP, 50 mM Tris, pH7.0 and 2% BSA to quench reaction. Transfer reaction to Nickel chelate FlashPlate. Allow his-tagged C. albcians Rho to capture onto plate. Rinse plate 1× with 200 μL 20 mM Tris, pH7.0. Read in TOPCOUNT.

C. albicans = assay: Determination of minimum fungicidal concentration (MFC); type: cell-based; settings: Candida albicans
Method: After the required time course for the MIC determination, the minimum fungicidal concentration can then be determined by plating out the entire contents of the well of the microtitre plates onto YPD or Sabourand plates. These plates are then incubated at 35° C. for 24-48 hrs. The MFC corresponds to the concentration of compound where no cellular growth is observed on the plate. For compound 99a, and MFC was calculated of 2 μg/ml.

human GGTase = human GGTase (Homo sapiens, UniProt P53609); assay: Human GGTase inhibition (Hu GG); type: biochemical
Text: As described below, a variety of different compounds were synthesized and tested for inhibitory activity against human and Candida GGTase. Exemplary synthesis schemes for generating prenyltransferase inhibitors useful in the methods and compositions of the present invention are shown in FIGS. 1-56. Tables 1-5 provide Structure-Activity relationship (SAR) data for several different classes of prenyltransferase inhibitors.

`CC(C)C[C@H](NC(=O)C1(c2ccccc2)CCN(C(=O)[C@@H](N)CS)CC1)C(=O)N[C@@H](C)C(=O)O` [Compound 99a] was tested, and the “abundance of MycCaRHO1 in the cytosolic fraction (FIG. 57)” value (MycCaRHO1) was “increases the abundance of MycCaRHO1 in the cytosolic fraction”, the IC50 (H460 Cell Line) was greater than 10000 nM and the IC50 (IMR90 Cell Line) was greater than 10000 nM. It also gave an IC50 (C. albicans GGPTase; Table 3 Piperidine Analogs, read-out: IC50 (nM) Ca GG) of less than 50 nM, an IC50 (C. albicans GGPTase; Table 5, read-out: IC50 (nM) Candida) of less than 50 nM and an MFC (C. albicans; read-out: Candida MFC (g/mL)) of 2 µg/mL (≈ 4.06 µM). The MFC (C. albicans; read-out: MFC) was 2 µg/mL (≈ 4.06 µM), the IC50 (human GGTase; Table 3 Piperidine Analogs, read-out: IC50 (nM) Hu GG) was greater than 500 nM and the IC50 (human GGTase; Table 5, read-out: IC50 (nM) Human) was greater than 500 nM.
